The source of these data is patent publication US6284910A, “Farnesyl pyrophosphate analogs” (University of Kentucky Research Foundation, priority 1999, dated 2001).

The target in experiment [1] is T1, squalene synthase (Bos taurus, UniProt Q32KR6).
T1 construct: squalene synthase activity present in bovine brain microsome fractions; from tissue; host or cells: bovine brain microsomes (crude)
T1 sequence (Q32KR6 1-417): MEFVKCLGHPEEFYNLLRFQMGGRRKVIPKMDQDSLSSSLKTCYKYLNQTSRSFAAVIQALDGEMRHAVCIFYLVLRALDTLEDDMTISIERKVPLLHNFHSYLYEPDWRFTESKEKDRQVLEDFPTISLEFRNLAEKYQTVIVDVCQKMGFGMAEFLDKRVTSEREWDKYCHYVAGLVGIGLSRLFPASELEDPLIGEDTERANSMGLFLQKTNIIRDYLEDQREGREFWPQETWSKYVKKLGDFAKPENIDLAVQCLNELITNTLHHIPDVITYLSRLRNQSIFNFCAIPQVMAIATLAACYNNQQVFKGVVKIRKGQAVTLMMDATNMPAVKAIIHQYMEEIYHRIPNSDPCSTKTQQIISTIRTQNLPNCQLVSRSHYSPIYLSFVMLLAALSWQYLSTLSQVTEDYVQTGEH
Kind of experiment: Inhibition of squalene synthase activity in bovine brain microsomes. The class given is biochemical. The conditions noted are these: 0.05 mM [^3 H]FPP. Here is the method: FIG. 7. Inhibition of Squalene Synthase by AGPP. The initial rates of squalene synthase activity were determined from bovine brain microsomal preparations in the presence of the indicated concentration of unlabeled AGPP (filled squares) or unlabeled FPP (open triangles) under the in vitro conditions described in "Experimental Procedures." Crude bovine brain microsomes and 0.05 mM [^3 H]FPP (105 cpm/pmol) and unlabeled AGPP and FPP were added at the indicated concentrations and incubated for 30 min. at 37° C. The reactions were terminated with 40% (wt/vol) KOH and 95% ethanol. Authentic carrier squalene (20 μg) was added and the reactions extracted with petroleum ether. The amount of labeled lipid formed was measured by scintillation counting. […]
Assay for Squalene Synthase Activity--Initial rates of squalene synthase activity present in bovine brain microsome fractions were assayed as previously described (19) with minor modifications. […] The remaining sample was analyzed on Silica gel G 60 TLC plates by developing with hexane (33). […]
FIG. 7 depicts inhibition of Squalene Synthase by AGPP. The initial rates of squalene synthase activity were determined from bovine brain microsomal preparations in the presence of the indicated concentration of unlabeled AGPP (filled squares) or unlabeled FPP (open triangles) (77). […] The amount of labeled lipid formed was measured by scintillation counting.

In experiment [2] the target is FTase (Rattus norvegicus, UniProt Q02293+Q04631). Kind of experiment: Continuous fluorescence assay: transfer of FPP and analogs to N-dansyl-GCVLS by FTase. The class given is biochemical. The conditions noted are these: excitation 340 nm, 505 nm. The source says: FIG. 8. Progress Curves for Transfer of FPP and Analog Pyrophosphates to Dansyl-GCVLS by FTase. The reaction is monitored for fluorescence intensity at 505 nm with excitation at 340 nm. (a) FPP, (b) AGPP, (c) 8-(pentafluoroaniline)geranyl pyrophosphate, (d) blank.
Continuous Fluorescence Assay for Analog Transfer: An important requirement for these studies is the development of a rapid technique for evaluating whether FPP analogs that are efficiently and appropriately transferred to target substrates by FTase. The analogs were evaluated for their ability to be transferred by FTase to the pentapeptide N-dansyl-GCVLS in a continuous fluorescence assay. (See references 78, 79, infra). There is a time dependent increase in the fluorescence of the dansyl group due to the local increase in hydrophobicity as the adjacent cysteine residue is isoprenylated. […] (FIG. 8).

Each structure is given as a SMILES string. pIC50: −log10 of the molar value. Entries after “also recorded” stand apart in the source; their conditions may differ.

As a reminder, the pIC50 is −log10 of the IC50, conventionally taken in molar units. A high value points to a small IC50. Turning to `C/C(=C\COP(=O)(O)OP(=O)(O)O)CC/C=C(\C)CNc1ccccc1` [AGPP, (E,E)-8-Aniline-3,7-dimethyl-2,6-octadiene pyrophosphate], the “inhibition of squalene synthase, in words” value in experiment [1] was “does not Inhibit Squalene Synthase Activity; also recorded: far less potent in vitro inhibitor of squalene synthase activity than FPP; also recorded: far less potent in vitro inhibitor of squalene synthase activity than for FTase”. For the same molecule, the negative logarithm of the IC50 (pIC50) in experiment [1] (37° C., 30 min) is 3.00. The “time-dependent increase in dansyl fluorescence / transfer to dansyl peptide, in words” value in experiment [2] is “transferred efficiently”; in experiment [2] (listed as 1) it was “Time-dependent increases in the fluorescence of the dansyl group”.
